Assay results published in patent US20100279990A1, “ANTIPROLIFERATIVE COMPOUNDS, COMPOSITIONS AND METHODS OF USE” (RAMOT AT TEL-AVIV UNIVERSITY LTD., priority 2006, published 2010).
Like-named read-outs stand apart in the source and are kept apart here.

What was measured:
[1] = tested on: human colon carcinoma cells (HT29); experiment: HT29 human colon carcinoma s.c. tumor in Nude CD1 male mice; assay type: in vivo
Text: This example illustrates the effect of several compounds, including an exemplary compound of the present invention, on tumor volume. tumor weight and body weight in mice. Nude CD1 male mice were purchased from Harlan (Israel). Animals were housed under controlled conditions (temperature, humidity) and were given food and water ad libitum. After one week of acclimatization animals were inoculated s.c. with human colon carcinoma cells (HT29) (2,000,000 cell/animals.). Therapy began 8 days after inoculation, at which time the animals were divided randomly into 4 groups (7-8 mice/group) and administered ip 3 times weekly for 4 weeks with the following compounds: […] Body weight and tumor volume were measured weekly. Tumor volume is defined as (shortest diameter)^2×(longest diameter)×0.5. At the end of the treatment, animals were sacrificed and tumors and organs collected and weighed.

[2] = tested on: human Jurkat lymphoma cells; experiment: Viability of human Jurkat lymphoma cells, alamar blue staining; assay type: cell-based; details: for IC50: Homo sapiens, 48 hr, alamar blue
Protocol: This example illustrates cell viability data derived from the incubation of a human. […] The results are depicted in FIGS. 1A, 1B, and 1C. […] See Nociari et al., J. Immunol. […] Each point represents the mean+/−SE of 4 determinations.

[3] = tested on: CEM/C1 cell-lines (camptothecin resistant human T-cell leukemia); experiment: Viability of CEM/C1 cell-line, alamar blue; assay type: cell-based; details: 1-30 μM
Text: This cell-line is a camptothecin (CPT) resistant derivative of the human T-cell leukemia purchased from ATCC (USA). […] The results are depicted in FIG. 14. Each point represents the mean+/−SEM of 4 determinations.

[4] = tested on: CEM/C1 human leukemia cells; experiment: Cell proliferation of CEM/C1 human leukemia cells, 3H thymidine incorporation; assay type: cell-based; details: for cell proliferation: 1 μM, 3H thymidine incorporation 24 hours; for effect on cell proliferation: already evident at 1 μM; for inhibition at 10 µM: Homo sapiens, 3H thymidine incorporation
Protocol: […] Cells, 10,000/well, were harvested and the incorporated radioactivity was determined by liquid scintillation in a beta counter.

[5] = tested on: human Jurkat lymphoma cells; experiment: Viability of human Jurkat lymphoma cells, dexamethasone alone and in combination; assay type: cell-based; details: Homo sapiens, 20 μM alone, FIG. 13B, read-out: inhibition of cell viability
[6] = tested on: human colon carcinoma cells (HT29); experiment: cells; details: HT-29, read-out: cell viability
[7] = tested on: human colon carcinoma cells (HT29)
[8] = tested on: Jurkat Lymphoma cells; experiment: Viability of Jurkat Lymphoma cells, combination with Doxorubicin; assay type: cell-based; details: Homo sapiens, Doxorubicin 20 μM alone, read-out: inhibition of cell viability
[9] = tested on: Con-A activated naive mouse splenocytes; experiment: Con-A-induced mouse splenocyte proliferation, alamar blue staining; assay type: cell-based
Text: This example illustrates cell viability data obtained by separately administering different concentrations of compound (Ia), paroxetine, citalopram, and ecitalopram to Con-A activated naive mouse splenocytes. FIG. 3A depicts the comparative effect of compound (Ia), paroxetine, citalopram and ecitalopram on Con-A-induced mouse splenocyte proliferation using alamar blue staining after 48 hr. Each point represents the mean+/−SE of 5 determinations.

[10] = tested on: human glioma U87 cells; experiment: Viability of human glioma U87 cell-line; assay type: cell-based; details: FIG. 9
[11] = tested on: human keratinocytes (HaCat cells); experiment: Viability of human keratinocytes (HaCat cells), neutral red staining; assay type: cell-based; details: 24 hr, read-out: IC50, cell viability
[12] = tested on: Caspase 3 activity of LS1034 human colon MDR carcinoma cells; experiment: Caspase-3 activity in LS1034 human colon MDR carcinoma cells; assay type: cell-based; details: 10 or 20 μM, 4 hr after exposure
Protocol: Caspase 3 activity was measured by an enzymatic fluorimetric method using a fluorigenic substrate (Ac-DEVD-AMC), which produces blue fluorescence detected at 360 nm wavelength. […] When AMC is cleaved from the substrate by caspase-3, and caspase-3-like enzymes, it produces a yellow-green fluorescence, which can be monitored by a fluorimeter at 460 nm. The amount of yellow green fluorescence is proportional to the activity of caspase-3 in the cell extract sample.
Whole cell lysate was added to a buffer containing 100 μM peptide substrate, 100 mM HEPES, 10% glycerol, 1 mM EDTA and 10 mM dithiothreitol. Measurements were taken every 5 min for 80 min. These experiments were also monitored in the presence of a specific caspase-3 inhibitor, DEVD-AMC-CHO, which was added after 45 or 60 min to the reaction mixture, to ascertain the specificity of the enzyme.

[13] = tested on: c-jun and p-c-jun expression in HaCat cells; experiment: Western blot of c-jun and p-c-jun expression in HaCat cells; assay type: cell-based, human; details: 15 μM, 1 hr
Text: For each sample 2×10^7 cells were used. The cells were lysed, and equal amounts of protein was fractionated on polyacrylamide gel and then transferred to PVDF membrane. The amount of the protein was detected by immuno-blotting with monoclonal anti-c-Jun or p-c-Jun antibodies (Cayman, Ann Arbor, Mich., USA). A second antibody conjugated to horseradish peroxidase was used and visualized with chemiluminescent Kit (Pierce, Rockford, Ill., USA) on film. […] Activation of the […] pathway produces p-c-Jun as a major end, while initiating apoptosis in certain cell-lines.

[14] = tested on: human tumor cell lines; experiment: In vitro antitumor activity in panel of 37 human tumor cell lines (Monolayer Assay, PI), summary; assay type: cell-based; details: mean over human cancer cell-lines
[15] = FIG. 1C, read-out: IC50, inhibition of cell viability

**Q.** `O=c1[nH]cc(F)c(=O)[nH]1` [5 FU, fluorouracil, reference compound] was tested. Which tumor volume ([1]; HT29 tumor in nude mice, ip 3 times weekly, after 3 and 4 weeks of therapy, FIG. 16) did it give?
**A.** The tumor volume was “significantly decreased compared to the control groups”.

**Q.** With `OCCCC#Cc1cc2c(cc1OC[C@@H]1CNCC[C@H]1c1ccc(F)cc1)OCO2` [compound (Ib), (3S-trans)-3-((6-(5-hydroxy-1-pentyn-1-yl)-1,3-benzodioxol-5-yloxy)methyl)-4-(4-fluorophenyl)-piperidine] as the compound, how does the IC50 [2, 15] read?
**A.** The IC50 was 19.5 µM.

**Q.** And the “potency compared with paroxetine” value ([2]; concentrations higher than 5 μM, FIG. 1C)?
**A.** Its value is “higher potency than paroxetine”.

**Q.** What about the IC50 [3] of the same compound?
**A.** The IC50 was 7.6 µM.

**Q.** And the “effect compared to sertraline and paroxetine” value [4]?
**A.** Its value is “significantly higher effects compared to sertraline and paroxetine”.

**Q.** And the cell proliferation [4]?
**A.** The cell proliferation was 43.6 % of controls.

**Q.** What about the “effect on cell proliferation” value [4] of the same compound?
**A.** The value was “dose dependent decrease in cell proliferation”.

**Q.** Which IC50 ([2]; FIG. 1B, read-out: IC50, decrease in cell viability) does the source give for `CN[C@H]1CC[C@@H](c2ccc(Cl)c(Cl)c2)c2ccc(C#CCCCOC)cc21.Cl` [compound (Ic), (1S-cis)-4-(3,4-dichlorophenyl)-7-(5-methoxy-1-pentyn-1-yl)-1,2,3,4-tetrahydro-N-methyl-1-naphthalenamine hydrochloride] here?
**A.** The IC50 was 17 µM.

**Q.** What about the “potency compared with sertraline” value ([2]; lower concentrations (1-10 μM), FIG. 1B) of the same compound?
**A.** Its value is “higher potency than sertraline”.

**Q.** What about the IC50 [3] of the same compound?
**A.** Its IC50 is 13.5 µM.

**Q.** And the inhibition at 10 µM [4]?
**A.** The inhibition at 10 µM was ~95%.

**Q.** What about the “effect on cell proliferation” value [4] of the same compound?
**A.** Its value is “dose dependent decrease in cell proliferation”.

**Q.** `C[C@@H]1C[C@H]2[C@@H]3CCC4=CC(=O)C=C[C@]4(C)[C@@]3(F)[C@@H](O)C[C@]2(C)[C@@]1(O)C(=O)CO` [dexamethasone, reference compound] was tested. Which cytotoxicity at 20 µM [5] did it give?
**A.** Its cytotoxicity at 20 µM is 8%.

**Q.** How did the viability at 30 µM [6] turn out when `COc1cccc2c1C(=O)c1c(O)c3c(c(O)c1C2=O)C[C@@](O)(C(=O)CO)C[C@@H]3O[C@H]1C[C@H](N)[C@H](O)[C@H](C)O1` [doxorubicin, reference compound] was run?
**A.** The viability at 30 µM was 57.7%.

**Q.** What about the cell proliferation [4] of the same compound?
**A.** The cell proliferation was 65.7 % of controls.

**Q.** And the inhibition at 10 µM [4]?
**A.** Its inhibition at 10 µM is ~95%.

**Q.** What about the “effect on cell viability compared with the antidepressants and compound (Ia)” value ([7]; 10 and 20 μM, FIG. 2A) of the same compound?
**A.** Its value is “more pronounced than that produced by the antidepressants and compound (Ia)”.

**Q.** And the cytotoxicity at 20 µM [8]?
**A.** The cytotoxicity at 20 µM was 54%.

**Q.** What does the source list for `CN(C)CCC[C@@]1(c2ccc(F)cc2)OCc2cc(C#N)ccc21` [ecitalopram, reference compound]?
**A.** effect on cell viability ([2]; low concentrations (2.5 and 5.0 μM), FIG. 1A): slight decrease in cell-viability; effect on cell-viability ([9]; up to 30 μM): no effect on cell-viability

**Q.** For `Fc1ccc([C@@H]2CCNC[C@H]2COc2ccc3c(c2)OCO3)cc1` [paroxetine, reference compound], which “effect on cell viability” value [10] is on record?
**A.** The value was “inhibit this glioma cell-line in a dose dependant fashion”.

**Q.** What about the IC50 ([2]; FIG. 1A, read-out: IC50, anti-proliferative activity) of the same compound?
**A.** The IC50 was 37.7 µM.

**Q.** And the IC50 [2, 15]?
**A.** Its IC50 is 37.6 µM.

**Q.** What about the IC50 ([9]; Splenocyte, 48 hr, alamar blue, read-out: IC50, inhibition in cell viability) of the same compound?
**A.** The IC50 was 11.9 µM.

**Q.** And the viability at 30 µM [6]?
**A.** Its viability at 30 µM is 74%.

**Q.** What about the IC50 [3] of the same compound?
**A.** Its IC50 is 12.3 µM.

**Q.** What about the IC50 [11] of the same compound?
**A.** Its IC50 is 16 µM.

**Q.** What about the caspase-3 activity [12] of the same compound?
**A.** Its caspase-3 activity is “dose dependent increase in the activity of caspase-3”.

**Q.** How did the “effect on cell viability” value [10] turn out when `CN[C@H]1CC[C@@H](c2ccc(Cl)c(Cl)c2)c2ccccc21` [sertraline] was run?
**A.** Its value is “inhibit this glioma cell-line in a dose dependant fashion”.

**Q.** What about the “efficacy compared with paroxetine” value [10] of the same compound?
**A.** The value was “higher efficacy than paroxetine”.

**Q.** What about the “effect on c-Jun / p-c-Jun (MAPK pathway)” value [13] of the same compound?
**A.** Its value is “activation of the c-Jun-N-terminal kinase (JNK) pathway”.

**Q.** And the viability at 30 µM [6]?
**A.** The viability at 30 µM was 60.3%.

**Q.** What about the “decrease in body weight” value ([1]; compared to 5 FU or controls, FIG. 18) of the same compound?
**A.** The value was 10%.

**Q.** What about the “histopathological assessment of spleen, liver and kidney” value ([1]; end of treatment) of the same compound?
**A.** Its value is “change in capsule fibrosis at random”.

**Q.** And the “potency compared with paroxetine” value ([7]; 10-30 μM, FIG. 2A)?
**A.** The value was “higher potency than paroxetine”.

**Q.** And the “potency compared with paroxetine and fluoxetine” value ([7]; equimolar doses, FIG. 2B)?
**A.** Its value is “significantly more potent than paroxetine and fluoxetine”.

**Q.** What about the “mean IC70” value [14] of the same compound?
**A.** The value was 13 µM.

**Q.** And the caspase-3 activity [12]?
**A.** Its caspase-3 activity is “dose dependent increase in the activity of caspase-3”.
